Holding throughout (type): cell-based
The subject of assay [1] is TYK2 pseudokinase (JH2); IL-23-stimulated HEK-Blue IL-23 cells. Description: HEK-Blue IL-23 reporter assay (STAT3-inducible SEAP) for profiling TYK2 pseudokinase (JH2) inhibition. Conditions: 10 ng/mL human recombinant IL-23, SEAP readout, read-out: IL23 (TYK2 inhibitory activity, IC50). The method, then: (§1) Example B-1: HEK-Blue™ IL-23 and IFNα/β Reporter Assays for Profiling TYK2 Pseudokinase (JH2) Inhibition
(§2) HEK-Blue™ IL-23 and IFNα/β cells with a stably-integrated cytokine receptor and STAT3 or STAT1 express STAT-inducible secreted embryonic alkaline phosphatase (SEAP) reporter gene upon cytokine stimulation. These cells are plated in DMEM (Gibco) containing 10% heat-inactivated FBS (Gibco) and 100 U/mL PenStrep (Gibco) at 37° C. under 5% CO2 conditions for 20-22 hours. The cells are then pretreated with serially diluted test compounds for 60 min prior to stimulation with either 10 ng/mL human recombinant IL-23 (Miltenyl Biotech) or 1 ng/mL human recombinant IFNα (InvivoGen) for 22-24 hours for IL-23 or 16-18 h for IFNα. SEAP induction is measured using the QUANTI Blue™ Solution (InvivoGen) according to the manufacturer's instructions.
(In general: Reporter assays use an easily measured gene product as a stand-in for the process of interest.)

In assay [2] the test system is TYK2 pseudokinase (JH2); IFNα-stimulated HEK-Blue IFNα/β cells. Nature of the assay: HEK-Blue IFNα/β reporter assay (STAT1-inducible SEAP) for profiling TYK2 pseudokinase (JH2) inhibition. The following applies: 1 ng/mL human recombinant IFNα, SEAP readout, read-out: IFNα (TYK2 inhibitory activity, IC50). The procedure:
as §1, §2

Assay [3] concerns IL-2-stimulated HEK-Blue IL-2 reporter cells. Nature of the assay: HEK-Blue IL-2 reporter assay (STAT5-inducible SEAP) for determining selectivity. The following applies: 4 ng/mL human recombinant IL-2, 24 hours. The procedure: (§3) Example B-3: HEK-Blue™ IL-2 and IFNγ Reporter Assays for Determining Selectivity
(§4) HEK-Blue™ IL-2 and IFNγ reporter cells with a stably-integrated cytokine receptor and STAT5 or STAT1 express STAT-inducible secreted embryonic alkaline phosphatase (SEAP) reporter gene upon cytokine stimulation. These cells were plated in DMEM (Gibco) containing 10% heat-inactivated FBS (Gibco) and 100 U/mL PenStrep (Gibco) at 37° C. under 5% CO2 conditions for 20-22 hours. The cells were then pretreated with serially diluted test compounds for 60 min prior to stimulation with either 4 ng/mL human recombinant IL-2 (Miltenyl Biotech) or 50 ng/mL human recombinant IFNγ (InvivoGen) for 24 hours. SEAP induction was measured using the QUANTI-Blue™ Solution (InvivoGen) according to the manufacturer's instructions.

Assay [4] concerns IFNγ-stimulated HEK-Blue IFNγ reporter cells. Description: HEK-Blue IFNγ reporter assay (STAT1-inducible SEAP) for determining selectivity. Conditions: 50 ng/mL human recombinant IFNγ, 24 hours, read-out: IFN-γ SEAP selectivity assay IC50. The procedure: as §3, §4

Consider 21 compounds from US12122785B2, “Substituted pyridines, pyridazines, pyrimidines, and 1,2,4-triazines as TYK2 inhibitors” (Sudo Biosciences Limited, priority 2021, dated 2024).

The structures appear in SMILES notation. pIC50: −log10 of the molar value.

As usually defined, the pIC50 is −log10 of the IC50, conventionally taken in molar units.

Take `[2H]C([2H])([2H])NC(=O)c1cnc(NC(=O)C2CC2)cc1Nc1cccc2c1N(C)[C@H](C)c1cn(C)nc1-2` (single isomer, unassigned) [Compound 31]: the pIC50 is over 7.52 in assay [1] and 6.52 to 7.52 in assay [2].

`[2H]C([2H])([2H])NC(=O)c1nnc(NC(=O)C2CC2)cc1Nc1nccc2c1N(C)[C@@H](C)c1cn(C)nc1-2` (single isomer, unassigned) [Compound 69]: the pIC50 in assay [1] and in assay [2] was 6.52 to 7.52 throughout.

For the compound `[2H]C([2H])([2H])NC(=O)c1nnc(NC(=O)NC)cc1Nc1nccc2c1N(C)[C@H](C)c1cn(C)nc1-2` (single isomer, unassigned) [Compound 78], the values for the pIC50 in assay [1] and in assay [2] were 6.52 to 7.52 and 6.00 to 6.52, respectively.

`[2H]C([2H])([2H])NC(=O)c1nnc(NC(=O)NC)cc1Nc1nccc2c1N(C)[C@@H](C)c1cn(C)nc1-2` (single isomer, unassigned) [Compound 80]: the pIC50 was under 6.00 in assay [3], under 6.00 in assay [4], over 7.52 in assay [1] and over 7.52 in assay [2].

In the case of `CNC(=O)c1nnc(Nc2ccc(F)cn2)cc1Nc1cccc2c1OCc1cn(C3COC3)nc1-2` [Compound 3, 6-[(5-fluoropyridin-2-yl)amino]-N-methyl-4-{[2-(oxetan-3-yl)-2H,4H-chromeno[4,3-c]pyrazol-6-yl]amino}pyridazine-3-carboxamide], the pIC50 in assay [3] is 6.00 to 6.52; in assay [4] it was 6.00 to 6.52; in assay [1], 6.52 to 7.52; in assay [2], under 6.00.

With `CNC(=O)c1nnc(NC(=O)C2CC2)cc1Nc1cccc2c1OCc1cn(C3COC3)nc1-2` [Compound 4, 6-(cyclopropanecarboxamido)-N-methyl-4-((2-(oxetan-3-yl)-2,4-dihydrochromeno[4,3-c]pyrazol-6-yl)amino)pyridazine-3-carboxamide], the pIC50 in assay [3] was 6.00 to 6.52; in assay [4], under 6.00; in assay [1], 6.52 to 7.52; in assay [2], under 6.00.

Regarding `CNC(=O)c1nnc(NC(=O)C2CC2)cc1Nc1cccc2c1OC(C)c1cn(C)nc1-2` (stereo not shown) [Compound 10, 6-(cyclopropanecarboxamido)-4-((2,4-dimethyl-2,4-dihydrochromeno[4,3-c]pyrazol-6-yl)amino)-N-methylpyridazine-3-carboxamide], the pIC50 in assay [1] was 6.52 to 7.52; in assay [2] it was under 6.00.

In the case of `CNC(=O)c1nnc(Nc2ccc(F)cn2)cc1Nc1cccc2c1OC(C)c1cn(C)nc1-2` (stereo not shown) [Compound 11, 4-((2,4-dimethyl-2,4-dihydrochromeno[4,3-c]pyrazol-6-yl)amino)-6-((5-fluoropyridin-2-yl)amino)-N-methylpyridazine-3-carboxamide], the pIC50 is 6.52 to 7.52 in assay [1] and under 6.00 in assay [2].

For `[2H]C([2H])([2H])NC(=O)c1cnc(NC(=O)C2COC2)cc1Nc1cccc2c1N(C)Cc1cn(C)nc1-2` [Compound 24, 4-((2,5-dimethyl-4,5-dihydro-2H-pyrazolo[4,3-c]quinolin-6-yl)amino)-N-(methyl-d3)-6-(oxetane-3-carboxamido)nicotinamide], the pIC50 in assay [1] and in assay [2] was 6.52 to 7.52 throughout.

Turning to `[2H]C([2H])([2H])NC(=O)c1nnc(NC(=O)NC)cc1Nc1cccc2c1N(C)C([2H])([2H])c1cn(C)nc1-2` [Compound 33, 4-((2,5-dimethyl-4,5-dihydro-2H-pyrazolo[4,3-c]quinolin-6-yl-4,4-d2)amino)-N-(methyl-d3)-6-(3-methylureido)pyridazine-3-carboxamide], the pIC50 in assay [3] was under 6.00; in assay [4], 6.00 to 6.52; in assay [1], over 7.52; in assay [2], over 7.52.

Take `CNC(=O)c1nnc(Nc2cc(C)nc(C)n2)cc1Nc1cccc2c1N(C)Cc1cn(C)nc1-2` [Compound 34, 4-((2,5-dimethyl-4,5-dihydro-2H-pyrazolo[4,3-c]quinolin-6-yl)amino)-6-((2,6-dimethylpyrimidin-4-yl)amino)-N-methylpyridazine-3-carboxamide]: the pIC50 in assay [3] was 6.52 to 7.52; in assay [4], 6.52 to 7.52; in assay [1], over 7.52; in assay [2] it was over 7.52.

For `[2H]C([2H])([2H])NC(=O)c1cnc(NC(=O)C2CC2)cc1Nc1cccc2c1N(C)Cc1cn(C(C)C)nc1-2` [Compound 37, 6-(cyclopropanecarboxamido)-4-((2-isopropyl-5-methyl-4,5-dihydro-2H-pyrazolo[4,3-c]quinolin-6-yl)amino)-N-(methyl-d3)nicotinamide], the pIC50 was over 7.52 in assay [1] and 6.52 to 7.52 in assay [2].

With `[2H]C([2H])([2H])NC(=O)c1nnc(NC(=O)C2CC2)cc1Nc1cccc2c1N(C)Cc1cc(C)nn1-2` [Compound 52, 6-(cyclopropanecarboxamido)-4-((2,5-dimethyl-4,5-dihydropyrazolo[1,5-a]quinoxalin-6-yl)amino)-N-(methyl-d3)pyridazine-3-carboxamide], the negative-log IC50 (pIC50) is under 6.00 in assay [3], 6.00 to 6.52 in assay [4], over 7.52 in assay [1] and over 7.52 in assay [2].

`[2H]C([2H])([2H])NC(=O)c1cnc(NC(=O)C2CC2)cc1Nc1cccc2c1N(C)Cc1cc(C)nn1-2` [Compound 53, 6-(cyclopropanecarboxamido)-4-((2,5-dimethyl-4,5-dihydropyrazolo[1,5-a]quinoxalin-6-yl)amino)-N-(methyl-d3)nicotinamide]: the pIC50 in assay [3] was under 6.00; in assay [4], 6.52 to 7.52; in assay [1], over 7.52; in assay [2], over 7.52.

As to `[2H]C([2H])([2H])NC(=O)c1nnc(NC(=O)C2CC2)cc1Nc1cccc2c1N(C)Cc1cc(C(F)(F)F)nn1-2` [Compound 54, 6-(cyclopropanecarboxamido)-N-(methyl-d3)-4-((5-methyl-2-(trifluoromethyl)-4,5-dihydropyrazolo[1,5-a]quinoxalin-6-yl)amino)pyridazine-3-carboxamide], the pIC50 was 6.52 to 7.52 in assay [1] and 6.00 to 6.52 in assay [2].

For the compound `[2H]C([2H])([2H])NC(=O)c1cnc(NC(=O)C2CC2)cc1Nc1cccc2c1N(C)Cc1cc(C(F)(F)F)nn1-2` [Compound 55, 6-(cyclopropanecarboxamido)-N-(methyl-d3)-4-((5-methyl-2-(trifluoromethyl)-4,5-dihydropyrazolo[1,5-a]quinoxalin-6-yl)amino)nicotinamide], the pIC50 in assay [1] is 6.52 to 7.52; in assay [2], 6.00 to 6.52.

`[2H]C([2H])([2H])NC(=O)c1nnc(NC(=O)C2CC2)cc1Nc1cccc2c1N(C)C([2H])([2H])c1cc(C)nn1-2` [Compound 56, 6-(cyclopropanecarboxamido)-4-((2,5-dimethyl-4,5-dihydropyrazolo[1,5-a]quinoxalin-6-yl-4,4-d2)amino)-N-(methyl-d3)pyridazine-3-carboxamide]: the pIC50 in assay [3] was under 6.00; in assay [4], 6.52 to 7.52; in assay [1], over 7.52; in assay [2], over 7.52.

Regarding `[2H]C([2H])([2H])NC(=O)c1nnc(N(C)C(=O)C2CC2)cc1Nc1nccc2c1N(C)C([2H])([2H])c1cn(C)nc1-2` [Compound 62, 4-((2,5-dimethyl-4,5-dihydro-2H-pyrazolo[4,3-c][1,7]naphthyridin-6-yl-4,4-d2)amino)-N-(methyl-d3)-6-(N-methylcyclopropanecarboxamido)pyridazine-3-carboxamide], the pIC50 in assay [1] was over 7.52; in assay [2], 6.52 to 7.52.

`[2H]C([2H])([2H])NC(=O)c1nnc(NC(=O)C2CC2)cc1Nc1nccc2c1N(C)C([2H])([2H])c1cn(C)nc1-2` [Compound 72, 6-(cyclopropanecarboxamido)-4-((2,5-dimethyl-4,5-dihydro-2H-pyrazolo[4,3-c][1,7]naphthyridin-6-yl-4,4-d2)amino)-N-(methyl-d3)pyridazine-3-carboxamide]: the pIC50 was 6.00 to 6.52 in assay [3] and over 7.52 in assay [1].

Consider `[2H]C([2H])([2H])NC(=O)c1nnc(NC(=O)C2CC2)cc1Nc1nccc2c1N(C)[C@H](C)c1cc(C)nn1-2` [Compound 81, (R)-6-(cyclopropanecarboxamido)-N-(methyl-d3)-4-((2,4,5-trimethyl-4,5-dihydropyrazolo[1,5-a]pyrido[3,4-e]pyrazin-6-yl)amino)pyridazine-3-carboxamide], for which the pIC50 in assay [1] and in assay [2] was over 7.52 in each case.

In the case of `[2H]C([2H])([2H])NC(=O)c1nnc(NC(=O)C2CC2)cc1Nc1cccc2c1N(C)Cc1cn(C(C)C)nc1-2` [Compound 91, 6-(cyclopropanecarboxamido)-4-((2-isopropyl-5-methyl-4,5-dihydro-2H-pyrazolo[4,3-c]quinolin-6-yl)amino)-N-(methyl-d3)pyridazine-3-carboxamide], the results for the pIC50 in assay [1] and in assay [2] were over 7.52 and 6.52 to 7.52, respectively.
